Assay results taken from patent US11083723B2, “Use of roluperidone to treat negative symptoms and disorders, increase neuroplasticity, and promote neuroprotection” (Minerva Neurosciences, Inc., priority 2018, dated 2021).
Where a name gives a salt, the structure may show the parent alone.

What was measured:
[1] = system: BDNF release by primary rat astrocytes; test: BDNF release by primary rat astrocytes, in situ ELISA; type: cell-based; settings: 5 days incubation
Procedure: At confluency, astrocytes were plated in 96-well Nunc MaxiSorp surface polystyrene flat-bottom immunoplate precoated with poly-D-lysine during 30 min. and an anti-BDNF monoclonal antibody overnight at 4° C. at a density of 30,000 cells/well. […] At the end of drug treatment, cells were carefully washed with TBST (20 mM Tris-HCl (pH 7.6), 150 mM NaCl, and 0.05% (vol/vol) Tween 20). The plate was then incubated with the polyclonal anti-human BDNF antibody overnight and BDNF quantified. Experimental Protocol-In Situ ELISA on Primary Astrocytes Rat Primary Culture of Astrocytes Rat mixed glial cells were cultured as described by McCarthy et al. Primary rat glial cells were prepared from the cortical of newborn Wistar rats (1 day). […] Medium was changed 3 times per week. At confluency, astrocytes were plated in 96-well Nunc MaxiSorp surface polystyrene flat-bottom immunoplate precoated with poly-D-lysine during 30 min (Sigma, Ref: […], batch: SLBS8705) and an anti-BDNF monoclonal antibody overnight at 4° C. at a density of 30,000 cells/well. (Balkowiec and Katz “Cellular Mechanisms Regulating Activity-Dependent Release of Native Brain-Derived Neurotrophic Factor from Hippocampal Neurons” J. […] At the end of drug treatment, cells were carefully washed with TBST (20 mM Tris-HCl (pH 7.6), 150 mM NaCl, and 0.05% (vol/vol) Tween 20). The plate was then incubated with the polyclonal anti-human BDNF antibody overnight. The amount of specifically bound polyclonal antibody, which when exposed to chromogenic substrate (TMB reagent; Promega), changes color in proportion to the amount of BDNF present in the sample. The color intensity was quantified by measuring the absorbance at 450 nm. BDNF standards, ranging in concentration from 0 to 500 pg/mL were added in parallel wells in the same medium than hippocampal neurons.

[2] = system: BDNF expression by astrocytes; test: BDNF expression by astrocytes, qPCR; type: cell-based, rat; settings: for BDNF expression astrocytes, % increase of control conditions: 5 days incubation; for BDNF expression by astrocytes, fold change (Fc) compared to control condition: 5 days
Procedure: For analysis of BDNF expression by real-time quantitative polymerase chain reaction (qPCR), astrocytes were seeded in 24 well-plates pre-coated with poly-D-lysine. After 1 day of culture, fresh serum free medium containing compounds was added during 5 days at 37° C. At the end of the incubation time total RNA content were extracted and reverse transcription was performed. Expression levels were calculated using the ΔCt method where the expression level of the mRNA of interest is given by 2-ΔCT with ΔCT=CT target mRNA−CT reference mRNA (Gapdh), in the same sample.
Rat Primary Culture of Astrocytes—rat mixed glial cells were cultured as described by McCarthy et al., 1980. Primary rat glial cells were prepared from the cortical of newborn Wistar rats (1 day). Briefly, meninges and blood vessels of the mice cortex were removed and placed in ice-cold medium of Leibovitz (L15; PanBiotech, ref P04-27055, batch 4511117) containing 2% of Penicillin-Streptomycin (PS; PanBiotech, ref P06-07100, batch 2110917) and 1% of bovine serum albumin (BSA; PanBiotech, ref P06-1391100, batch H171006). Tissues were dissociated with 0.25% trypsin-EDTA (PanBiotech, ref P10-023100, batch 8970318) at 37° C. for 10 min. Cells were then submitted to a supplementary incubation of 15 min at 37° C. in presence of deoxyribonuclease I (0.1 mg/ml Panbiotech, ref: P60-37780100, batch: H170706). Cells were then pelleted (5 min at 1200 rpm) and trypsinization was stopped by adding DMEM (Panbiotech, Ref P04-03600, Batch 5181217) supplemented with 10% FCS (Fischer, Ref 10270106, batch 42G2068K), 1 mM of Na/pyruvate (PanBiotech, ref: P04-43100, batch: 3470914) and 2% PS. Cells suspension was mechanically dissociated and filtered through 40 μm diameter nylon meshes (BD Falcon, Ref: 352340). The cells were collected by centrifugation at 1200 rpm/min for 10 min, re-suspended in culture medium and then plated in culture flasks (Dutscher, ref: 690175). Cells were seeded at a density of 1.25×10^5 cells/cm^2 and cultured in 5% CO2 at 37° C. Medium was changed three times per week.
Analysis of BDNF expression by real-time quantitative polymerase chain reaction (PCR): astrocytes were seeded in 24 well-plates pre-coated with poly-D-lysine (Sigma, ref P7886, batch: SLBQ9797V). After 1 day of culture, fresh serum free medium containing compounds was added during 5 days at 37° C. At the end of the incubation time, medium was removed and total RNA content were extracted using kit nucleo spin RNS XS (Macherey Nagel; 20 μL/well). 6 wells/condition were done. RNA concentration was determined using a Nanodrop 2000 spectrophotometer (Life Technologies ThermoFisher Scientific, Villebon sur Yvette, France).
Reverse transcription was performed on 500 ng of RNA using the high capacity RNA-to-cDNA mix (Applied Biotechnologies). qPCR was performed on 12.5 ng of cDNA using the following primers, purchased from Applied Biotechnology.
For qPCR reactions, the kit TaqMan™ Fast Universal PCR Master Mix (2×) was used. The following volumes were used: mix: 10 uL, enzyme: 4 uL, oligo: 1 uL each, cDNA: 5 uL (12,5 ng). For the comparisons between various compounds and concentrations, expression levels were calculated using the ΔCt method where the expression level of the mRNA of interest is given by 2-ΔCT with ΔCT=CT target mRNA−CT reference mRNA (Gapdh), in the same sample. For the cultures treated with GA or the unknown compound, relative expression levels were determined according to the ΔΔCt method where the expression level of the mRNA of interest is given by 2-ΔΔCT where ΔΔCT=ΔCt for treated cultures−ΔCt for untreated cultures.

sigma2 receptors = sigma2 receptors (Homo sapiens, UniProt Q5BJF2); test: Molecular binding profile, sigma2
[3] = biological target: alpha1-adrenergic receptors; test: Molecular binding profile, alpha1-adrenergic
[4] = system: negative symptoms in schizophrenia; test: Phase 2b clinical study, negative symptoms in schizophrenia; type: in vivo, human; settings: both tested doses (32 mg and 64 mg)
[5] = modified release (MR) formulation of Compound (I) that reduces QT prolongation; cited from earlier work

sigma2 receptors, sequence (Q5BJF2 whole entry): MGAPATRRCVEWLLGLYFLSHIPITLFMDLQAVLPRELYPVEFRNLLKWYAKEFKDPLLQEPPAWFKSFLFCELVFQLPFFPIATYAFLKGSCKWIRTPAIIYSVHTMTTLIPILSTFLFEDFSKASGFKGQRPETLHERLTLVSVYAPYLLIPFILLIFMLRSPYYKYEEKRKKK

O=C(CN1CCC(CN2Cc3ccccc3C2=O)CC1)c1ccc(F)cc1 [Compound (I), 1H-Isoindol-1-one, 2-[[1-[2-(4-Fluorophenyl)-2-oxoethyl]-4-piperidinyl]methyl]-2,3-dihydro-, hydrochloride, hydrate (1:1:2)]
BDNF release astrocytes, % increase of control conditions ([1]; 3 nM): 6.8% | BDNF release astrocytes, % increase of control conditions ([1]; 10 nM): 16.2% | BDNF release astrocytes, % increase of control conditions ([1]; 30 nM): 17.1% | BDNF release astrocytes, % increase of control conditions ([1]; 100 nM): 18.9% | BDNF release astrocytes, % increase of control conditions ([1]; 300 nM): 29.5% | BDNF release astrocytes, % increase of control conditions ([1]; 1 μM): 16.9% | BDNF expression astrocytes, % increase of control conditions ([2]; 0.3 nM): 26% | BDNF expression astrocytes, % increase of control conditions ([2]; 1 nM): 55% | BDNF expression by astrocytes, fold change (Fc) compared to control condition ([2]; 1 nM, p<0.05): 1.55 | BDNF expression astrocytes, % increase of control conditions ([2]; 3 nM): 81% | BDNF expression by astrocytes, fold change (Fc) compared to control condition ([2]; 3 nM, p<0.001): 1.81 | BDNF expression astrocytes, % increase of control conditions ([2]; 10 nM): 71% | BDNF expression by astrocytes, fold change (Fc) compared to control condition ([2]; 10 nM, p<0.01): 1.71 | BDNF expression astrocytes, % increase of control conditions ([2]; 30 nM): 31% | BDNF expression astrocytes, % increase of control conditions ([2]; 100 nM): 5% | Ki (sigma2 receptors): 0.0082 µM | selectivity sigma2 versus sigma1 receptors (sigma2 receptors; sigma2 versus sigma1): 30 fold | Ki [3]: 0.0144 µM | benefit over placebo in improving negative symptoms in schizophrenia [4]: statistically significant benefit | maximum plasma concentration (Cmax) [5]: below 80 ng/mL
